# “And” between values parts separate entries of the source, which are not always exact repeats. Identical values can stand only once. “Also recorded” adds a separate entry of the source. Like-named read-outs stand apart in the source and are kept apart here.
# How the values were obtained:
# mitochondrial ATP output = test: Bicep curls to failure (reps-to-failure) as proxy for ATP output; format: in vivo, human; design: key to Latching: ↑: Up-latching is indicated by an up-arrow; ↓: down-latching by a down-arrow; —: others producing no significant effect are indicated by a dash; conditions: for Latching: Table 1, up-/down-latching of IMM judged by reps-to-failure; for change in reps-to-failure from baseline: 100 mg dose, baseline 11 reps
# [1] = in vivo; cited from earlier work
SMILES,Latching (mitochondrial ATP output),latching behaviour as described in words (mitochondrial ATP output),other results
"O=C(O)CCC(=O)C(=O)O [AKG, Alpha-ketoglutarate]",,,latching behaviour as described in words (mitochondrial ATP output; in vivo): weak up-latcher
O=C(O)CCCCC(=O)O [Adipic acid],↑,,"reps-to-failure after dose (mitochondrial ATP output; 1 gram with 1 gram AAKG and sodium bicarbonate, from 11 reps, in 20 minutes): 31 reps"
O=C(O)CCCCCCCC(=O)O [Azelaic acid],↑,,"reps-to-failure after dose (mitochondrial ATP output; one gram, used alone, from 13, in 30 minutes): 43 reps"
"c12c3c4c5c1c1c6c7c2c2c8c3c3c9c4c4c%10c5c5c1c1c6c6c%11c7c2c2c7c8c3c3c8c9c4c4c9c%10c5c5c1c1c6c6c%11c2c2c7c3c3c8c4c4c9c5c1c1c6c2c3c41 [C60, fullerene C60]",,,"subsequent reps-to-failure performance (mitochondrial ATP output; FIG. 6 curve 624, 3 mg C60 in MCT oil taken at 49 reps after up-latchers and DHM): almost flat"
O=C(O)CC(O)(CC(=O)O)C(=O)O [Citric acid],↓,strongest down-latchers; also recorded: strong down-latcher,"half-life in the body [1]: about 5 minutes; reps-to-failure after dose (mitochondrial ATP output; 50 mg taken alone, from 20): 11 reps; reps-to-failure after dose (mitochondrial ATP output; FIG. 11 point 1108, two grams neutralized, from baseline 22 reps, stays flat): 10 reps; bicep curls to failure after dose (mitochondrial ATP output; about 2 g neutralized by bicarbonate, from 24 rep baseline, at 15 and 30 minutes): 11 reps"
COC1=C(OC)C(=O)C(C/C=C(\C)CC/C=C(\C)CC/C=C(\C)CC/C=C(\C)CC/C=C(\C)CC/C=C(\C)CC/C=C(\C)CC/C=C(\C)CC/C=C(\C)CCC=C(C)C)=C(C)C1=O [CoQ-10],—,,
CN(CC(=O)O)C(=N)N [Creatine],—,did not latch,
"O=C1c2c(O)cc(O)cc2O[C@H](c2cc(O)c(O)c(O)c2)[C@H]1O [DHM, Dihydromyricetin]",,down-latching,"reps-to-failure after dosing on top of up-latching (mitochondrial ATP output; FIG. 9 curve 924, dosed at point 922 after lactate/AAKG/PQQ, baseline 20 reps, then recovery): substantially below baseline"
OC[C@@H](O)[C@@H](O)CO [Erythritol],↓,strong down-latchers,"reps-to-failure after dose (mitochondrial ATP output; FIG. 6 point 630, dosed at up-latched level of about 49 reps): 11 reps"
O=C(O)/C=C/C(=O)O [Fumaric acid],↑,one of the best up-latchers,"reps-to-failure curve compared with curve 124 of the fumaric acid/AAKG combination (mitochondrial ATP output; FIG. 1, dosed singly, neutralized, baseline 12 reps): much lower"
OCC(O)CO [Glycerol],↓,strong down-latcher,"reps-to-failure after being reduced (mitochondrial ATP output; 3 g, separate trials): 11 reps and 14 reps; reps-to-failure after being knocked down (mitochondrial ATP output; 5 g): 14 reps; reps-to-failure after dose relative to baseline (mitochondrial ATP output; FIG. 3A point 373, 5 g, from up-latched level): down to baseline; reps-to-failure after dose (stabilized) (mitochondrial ATP output; FIG. 4, five grams, from 30 reps): about 13 reps"
O=C(O)CO [Glycolic acid],↑,,"reps-to-failure after dose (mitochondrial ATP output; .7 g, from 14 reps (after 5 g glycerol), in about 1 hour): 28 reps"
CC(O)C(=O)O (centres unmarked) [Lactic acid],↑,,"biological half-life [1]: around 20 minutes; reps-to-failure relative to new baseline 350 (mitochondrial ATP output; FIG. 3A points 360-362, after PQQ treatments): above baseline 350"
CC(C)=CCC/C(C)=C/C=C/C(C)=C/C=C/C(C)=C/C=C/C=C(C)/C=C/C=C(C)/C=C/C=C(\C)CCC=C(C)C [Lycopene],↑,,"bicep curls to failure after dose (mitochondrial ATP output; FIG. 7, 100 mg, from baseline of 6 reps, 70 minutes): 32 reps"
O=C(O)CC(O)C(=O)O (centres unmarked) [Malic acid],↑,,"reps-to-failure after dose (mitochondrial ATP output; as magnesium malate, from 10 reps (after 3 g glycerol and 1 g ethyl lactate), in 2 hours): 21 reps; reps-to-failure results compared with neutralized fumaric acid in FIG. 1 (mitochondrial ATP output; separate trials, neutralized): nearly identical"
O=C(O)C(O)c1ccccc1 (centres unmarked) [Mandelic acid],↑,,"reps-to-failure after dose (mitochondrial ATP output; 1 g of salt, from 14 reps (after 3 g glycerol)): 31 reps"
OC[C@@H](O)[C@@H](O)[C@H](O)[C@H](O)CO [Mannitol],—,,

SMILES,Latching (mitochondrial ATP output),latching behaviour as described in words (mitochondrial ATP output),other results
O=C(O)c1cccnc1 [Niacin],,down-latchers,
O=C(O)CC(=O)C(=O)O [Oxaloacetic acid],↑,,
"O=C(O)c1cc(C(=O)O)c2c(n1)C(=O)C(=O)c1cc(C(=O)O)[nH]c1-2 [PQQ, Pyrroloquinoline quinone]",,,"effect on fission and fusion reps-to-failure curves (mitochondrial ATP output; FIG. 3A point 340, PQQ increased 5-fold to 100 mg, with one gram AAKG, person after shingles): near instant merger of fission and fusion lines"
O=C(O)CCCCCC(=O)O [Pimelic acid],↑,,
CC(=O)C(=O)O [Pyruvate],—,,
Oc1ccc(C=Cc2cc(O)cc(O)c2)cc1 [Resveratrol],↓,,
O=C1NS(=O)(=O)c2ccccc21 [Saccharin],.—,,
OC[C@@H](O)[C@@H](O)[C@H](O)[C@@H](O)CO [Sorbitol],↓,,
O=C(O)CCCCCCC(=O)O [Suberic acid],↑,,
O=C(O)CCC(=O)O [Succinic acid],↑,indirect up-latcher,"peak reps-to-failure relative to fumaric and/or malic acids (mitochondrial ATP output; combined with AAKG and a neutralizing base): about half; delay of reps-to-failure peak (mitochondrial ATP output; combined with AAKG and a neutralizing base, versus fumaric/malic acids): about 15 minutes"
O=C(O)C(O)C(O)C(=O)O (centres unmarked) [Tartaric acid],↑,,"reps-to-failure after dose (mitochondrial ATP output; 2 g, from 11 reps (after 3 g glycerol)): 21 reps"
O=c1oc2cc(O)ccc2c2ccc(O)cc12 [Urolithin A],↓,,
CCCCOC(=O)C(C)O (centres unmarked) [butyl lactate],,strong down-latchers,
CCOC(=O)C(C)O (centres unmarked) [ethyl lactate],,strong down-latchers,
"CN(C)c1ccc2nc3ccc(=[N+](C)C)cc-3sc2c1 [methylene blue, reference compound]",,,change in reps-to-failure from baseline (mitochondrial ATP output; at 15 minutes): no change; change in reps-to-failure from baseline (mitochondrial ATP output; at one hour): no change
NC(=O)c1cccnc1 [nicotinamide],,down-latchers,
CC1=C(/C=C/C(C)=C/C=C/C(C)=C/C=C/C=C(C)/C=C/C=C(C)/C=C/C2=C(C)C[C@@H](O)CC2(C)C)C(C)(C)C[C@H](O)C1 [zeaxanthin],,substantially non-latcher,"maximum bicep curls to failure after dose (mitochondrial ATP output; FIG. 7 point 706, from baseline of 9 reps, in 15 minutes, then fell back): 14 reps"
